Reference: patent US11369662B2 (The Medical College of Wisconsin, Inc., priority 2014, dated 2022)
Values joined by “and” are separate entries in the source; they are usually repeats but may differ in a detail not shown here. Equal entries are not always repeated. Marks after values point to notes of the source that are not given here. Non-standard residues stand in square brackets, D forms with d. Residues, ends and D or L forms follow the SMILES beside them. sY = N[C@@H](Cc1ccc(OS(=O)(=O)O)cc1)C(=O)O

Tests used:
[1] = tested on: MiaPaCa2 cells; experiment: MiaPaCa2 chemotaxis (Transwell); format: cell-based; details: 6 h stimulation; relative to CXCL12WT
Protocol: MiaPaCa2 chemotaxis. Chemotactic migration of pancreatic cancer MiaPaCa2 cells was performed as previously described using Transwell plates coated with 15 ug/ml collagen. Briefly, MiaPaCa2 cells were serum starved for 2 hours, lifted using enzyme-free dissociation buffer, washed and then counted using a hemocytometer. 100,000 cells in 10 uL of serum free media were plated into the top chamber of each Transwell. The bottom chamber of each Transwell contained each stimulant in 500 uL serum free media. MiaPaCa2 cells were allowed to migrate for 6 hours, after which the cells remaining on the top of the chamber were swabbed out. Plates were then fixed in 4% paraformaldehyde and stained with DAPI. Migrated cells were visualized and counted by fluorescence microscopy, with 5 representative high-powered fields taken per well.

[2] = tested on: NALM6 cells; experiment: NALM6 chemotaxis (Boyden chamber); format: cell-based; details: 90 min stimulation; relative to CXCL12WT
Protocol: NALM6 chemotaxis. NALM6 cells were grown in RPMI-1640 supplemented with 10% FBS, 100 U/mL penicillin-streptomycin, 2 mM glutamine, 50 μM […], non-essential amino acids, 1 mM Na-pyruvate and 25 mM HEPES buffer (pH 7.3). Chemotaxis assays were performed in triplicate in 48-well Boyden chambers (NeuroProbe), using 5 μm pore-sized polyvinylpyrrolidone-free polycarbonate membranes. […] Cells ([…] per well) resuspended in chemotaxis medium were added to the upper well and incubated for 90 min at 37° C. in 5% CO2 atmosphere. Cells were removed from the upper part of the membrane with a rubber policeman. Cells attached to the lower side of the membrane were fixed and stained as described. Migrated cells were counted in five randomly selected fields of 1000-fold magnification.
NALM6 chemotaxis. NALM6 cells were grown in RPMI-1640 supplemented with 10% FBS, 100 U/mL penicillin-streptomycin, 2 mM glutamine, 50 μM 2-mercaptoethanol, non-essential amino acids, 1 mM Na-pyruvate and 25 mM HEPES buffer (pH 7.3). Chemotaxis assays were performed in triplicate in 48-well Boyden chambers (NeuroProbe), using 5 μm pore-sized polyvinylpyrrolidone-free polycarbonate membranes. […] Migrated cells were counted in five randomly selected fields of 1000-fold magnification.

[3] = tested on: U-937 cells; experiment: Agarose microdroplet assay of U-937 migration; format: cell-based
Protocol: Agarose microdroplet assay. The agarose microdroplet assay was performed to determine U-937 cellular migration, as previously described. 0.5×10^6 cells/ml U-937 target cells were harvested and washed in HBSS. Cells were spun at 2,000 rpm and were transferred to a graduated 15 ml glass conical tube. The cell concentration was adjusted in agarose medium, prepared from 2% low melting temperature Seaplaque agarose and medium containing 15% FBS, using a 1:4 volume-to-volume dilution. A 1 μl agarose droplet containing 1-10^5 target cells was placed in the center of each well of a 96-well flat-bottom tissue culture plate, in triplicate, using a gastight 0.05 ml Hamilton syringe (Hamilton Company, Reno, Nev.). Droplets were allowed to harden at 4° C. for 20 min. 200 μl chilled test media was applied to each well. […] The plate was incubated for 18-24 h at 37° C. and 5% CO2. Following incubation, the radius of each droplet was determined and target cell migration was measured at four directional points 900 from one another, using an inverted light microscope equipped with a gridded eyepiece, at 40× total magnification. Percent inhibition of each sample was quantified. The plate was incubated for an additional 24 h to measure recovery, and viability was determined by trypan blue exclusion.
Agarose microdroplet assay. The agarose microdroplet assay was performed to determine U-937 cellular migration, as previously described {AdeCXCL121an, 1980 #1609}. 0.5×10^6 cells/ml U-937 target cells were harvested and washed in HBSS. Cells were spun at 2,000 rpm and were transferred to a graduated 15 ml glass conical tube. […] Following incubation, the radius of each droplet was determined and target cell migration was measured at four directional points 900 from one another, using an inverted light microscope equipped with a gridded eyepiece, at 40× total magnification. Percent inhibition of each sample was quantified. The plate was incubated for an additional 24 h to measure recovery, and viability was determined by trypan blue exclusion.

[4] = tested on: THP-1 cells; experiment: THP-1 chemotaxis (Transwell); format: cell-based; details: 3 h stimulation
Protocol: THP-1 chemotaxis. Chemotaxis experiments were performed using Tranwell ([…]; Costar) in 24-well format. […] THP-1 cells were washed twice and […] cells were added to the upper chamber. Plates were incubated for 3 h at 37° C., 5% CO2. Following incubation, Transwell membranes were removed and cells that migrated into the lower chamber were counted using a TC-10 Automated Cell Counter (BioRad) and hemocytometer. The chemotactic index was calculated as the difference in migrated cell number between those exposed to chemokine and the vehicle control.

[5] = tested on: KG1a cells; experiment: Apoptosis assays in KG1a cells expressing CXCR4-YFP; format: cell-based, human; details: 100 ng/ml
Protocol: Apoptosis assays. KG1a (human acute myelogenous leukemia) cells were assayed for CXCL12-dependent apoptosis as previously described. Briefly, CXCR4 expression on KG1a cells was achieved via transient transfection with a plasmid encoding a CXCR4-YFP fluorescent fusion protein. […] Apoptosis was assayed by staining cells with APC-conjugated annexin V to detect cell-surface phosphatidyl serine (BD Biosciences) or Alexaflour-647-conjugated antibody to detect cleaved PARP (BD Biosciences), and the percentage of YFP+ cells undergoing apoptosis was determined by flow cytometry.

[6] = target: T1, CXCL122 (Homo sapiens, UniProt P48061, A86C/L57C); experiment: 2D NMR (1H-15N HSQC) titration of CXCR4 peptides into CXCL122; format: binding; details: for ΔG: ΔG = −RT ln Kd @ 298 K
T1 construct: made in house
Protocol: (§1) NMR spectroscopy. All NMR spectra were acquired on a Bruker DRX 600 MHz spectrometer equipped with a ^1H, ^15N, ^13C TXI cryoprobe at 298 K. Experiments were performed with either 50 μM [U-^15N]-CXCL12WT, -CXCL121, or -CXCL122 proteins in a solution containing 25 mM deuterated MES (pH 6.8), 10% (v/v) D2O, and 0.02% (w/v) NaN3. Full-length CXCR41-38 peptide titrations required 20 μM [U-^15N]-CXCL121 and -CXCL122 protein samples. Sulfated CXCR4 peptides were reconstituted at 100 mM in 25 mM deuterated MES, 10% (v/v) D2O, and 0.02% (w/v) NaN3 buffer. Unsulfated CXCR4 peptides were similarly reconstituted to 15 mM. Two separate 4ISIYTSD10 (SEQ ID NO:8) peptide samples were reconstituted at 10 mM and 15 mM peptide in 25 mM deuterated MES, 10% (v/v) D20, 0.02% (w/v) NaN3 buffer, from lyophilized powder.
(§2) Total peptide additions differed for individual peptide titrations but ranged from 0-160 equivalencies. Spectra were processed using in-house scripts and chemical shift tracking was performed using CARA software. Combined ^1H/^15N chemical shift perturbations were calculated as ((5 ΔδH)^2+(ΔδNH)^2)^0.5, where δH and δNH are the amide proton and nitrogen chemical shifts, respectively. Equilibrium dissociation constants (Kd) were determined by non-linear fitting of the combined ^1H/^15NH chemical shift perturbations as a function of peptide concentration to a single-site quadratic equation. For a given interaction, residues with the largest chemical shift perturbations were fitted individually. The resulting Kd values and their respective fitting errors were then averaged to produce the reported affinity and standard deviation for that interaction.

[7] = target: T2, CXCL121 (Homo sapiens, UniProt P48061, I79C/L76C); experiment: 2D NMR (1H-15N HSQC) titration of CXCR4 peptides into CXCL121; format: binding; details: for ΔG: ΔG = −RT ln Kd @ 298 K
T2 construct: made in house
Protocol: as §1, §2

[8] = target: T3, CXCL12WT (Homo sapiens, UniProt P48061); experiment: 2D NMR (1H-15N HSQC) titration of CXCR4 peptides into CXCL12WT; format: binding; details: for ΔG: ΔG = −RT ln Kd @ 298 K
T3 construct: made in house
Protocol: as §1, §2

[9] = target: T4, CXCL12WT dimerization (Homo sapiens, UniProt P48061); experiment: Intrinsic tryptophan fluorescence polarization assay of CXCL12WT dimerization; format: binding; details: for coupling energy linking CXCL12 dimerization to sTyr21 pocket binding: thermodynamic cycle
T4 construct: made in house
Protocol: Fluorescence polarization assay. Fluorescence polarization (FP) assays were performed on a PTI spectrofluorometer equipped with automated polarizers, using a time base polarization method provided by the program Felix32. […] Experiments were performed in duplicate and the reported dimerization Kd values reflect the average of both experiments.

[10] = target: T3, CXCL12WT; details: ΔG = −RT ln Kd @ 298 K; calculated from Veldkamp et al. (32); cited from earlier work
[11] = unsulfated vs sulfated Tyr7 peptide

Row | Compound | ΔG [6] | ΔG [7] [kcal/mol] | ΔG [8] [kcal/mol] | other results
1 | CXCL121: constitutively monomeric CXCL12 variant with L55C and I58C substitutions (SEQ ID NO:2) |  |  |  | extension of the effective chemotactic dose [1]: at least 10 fold; extension of the effective chemotactic dose [2]: at least 10 fold; effect on U-937 cell migration ([3]; all tested concentrations, 18-24 h, serum-containing media): significantly enhanced migration; concentration of peak migration enhancement ([3]; bell-shaped dose response): 25 nM; extension of the effective chemotactic dose [4]: at least 10 fold; cleavage of PARP [5]: significantly greater than CXCL122
2 | CC[C@H](C)[C@H](NC(C)=O)C(=O)N[C@@H](CO)C(=O)N[C@H](C(=O)N[C@@H](Cc1ccc(OS(=O)(=O)O)cc1)C(=O)N[C@H](C(=O)N[C@@H](CO)C(=O)N[C@@H](CC(=O)O)C(N)=O)[C@@H](C)O)[C@@H](C)CC [4ISIsYTSD10] (Ac-ISI[sY]TSD-NH2) | -4.65 kcal/mol | -3.02 | -3.22 | 
3 | Ac-SDNYTEE-NH2 [9SDNYTEE15] | -4.74 kcal/mol | -3.50 | -3.65 | 
4 | Ac-SGDYDSM-NH2 [18SGDYDSM24] | -4.2 kcal/mol and -4.20 kcal/mol | -3.85 | -3.50 | 
5 | Ac-ISIYTSD-NH2 [4ISIYTSD10] | -4.60 kcal/mol | -4.03 | -3.71 | binding to CXCL121 relative to the sTyr7 sulfopeptide [7, 11]: roughly five-fold stronger; affinity for CXCL12WT relative to the sTyr7 sulfopeptide [8, 11]: two-fold higher affinity

Now from value to compound, other results behind:

Row | ΔG [6] | ΔG [7] [kcal/mol] | ΔG [8] [kcal/mol] | Compound | other results
6 | -4.87 kcal/mol | -3.74 | -4.09 | CC(=O)N[C@@H](CO)C(=O)N[C@@H](CC(=O)O)C(=O)N[C@@H](CC(N)=O)C(=O)N[C@@H](Cc1ccc(OS(=O)(=O)O)cc1)C(=O)N[C@H](C(=O)N[C@@H](CCC(=O)O)C(=O)N[C@@H](CCC(=O)O)C(N)=O)[C@@H](C)O [9SDNsYTEE15] (Ac-SDN[sY]TEE-NH2) | 
7 | -5.01 kcal/mol | -3.81 | -3.74 | CSCC[C@H](NC(=O)[C@H](CO)NC(=O)[C@H](CC(=O)O)NC(=O)[C@H](Cc1ccc(OS(=O)(=O)O)cc1)NC(=O)[C@H](CC(=O)O)NC(=O)CNC(=O)[C@H](CO)NC(C)=O)C(N)=O [18SGDsYDSM24] (Ac-SGD[sY]DSM-NH2) | increase of CXCL12 dimerization affinity ([9]; by sTyr21 sulfopeptide): eight-fold; coupling energy linking CXCL12 dimerization to sTyr21 pocket binding ([9]; first value): −1.2 kcal mol^−; coupling energy linking CXCL12 dimerization to sTyr21 pocket binding ([9]; second value): −1.0 kcal mol^−; binding to CXCL122 relative to CXCL12WT or CXCL121 ([6]; fold stronger): 20 fold; ΔGbind ([6]; pathway 2: binding to dimerized CXCL12, 298 K): −5.0 kcal mol^−; binding to CXCL122 relative to the unsulfated variant ([6]; sulfated vs unsulfated Tyr21 peptide): four-fold stronger; ΔGbind ([7]; pathway 1: binding to CXCL12 before dimerization, 298 K): −3.8 kcal mol^−
8 | -8.24 kcal/mol | -7.43 |  | CC[C@H](C)[C@H](NC(=O)CNC(=O)[C@H](CCC(=O)O)NC(=O)[C@H](CCSC)NC(=O)[C@H](CCSC)NC(=O)CN)C(=O)N[C@@H](CO)C(=O)N[C@H](C(=O)N[C@@H](Cc1ccc(O)cc1)C(=O)N[C@H](C(=O)N[C@@H](CO)C(=O)N[C@@H](CC(=O)O)C(=O)N[C@@H](CC(N)=O)C(=O)N[C@@H](Cc1ccc(O)cc1)C(=O)N[C@H](C(=O)N[C@@H](CCC(=O)O)C(=O)N[C@@H](CCC(=O)O)C(=O)N[C@@H](CCSC)C(=O)NCC(=O)N[C@@H](CO)C(=O)NCC(=O)N[C@@H](CC(=O)O)C(=O)N[C@@H](Cc1ccc(O)cc1)C(=O)N[C@@H](CC(=O)O)C(=O)N[C@@H](CO)C(=O)N[C@@H](CCSC)C(=O)N[C@@H](CCCCN)C(=O)N[C@@H](CCC(=O)O)C(=O)N1CCC[C@H]1C(=O)N[C@@H](C)C(=O)N[C@@H](Cc1ccccc1)C(=O)N[C@@H](CCCNC(=N)N)C(=O)N[C@@H](CCC(=O)O)C(=O)N[C@@H](CCC(=O)O)C(=O)N[C@@H](CC(N)=O)C(=O)N[C@@H](C)C(=O)N[C@@H](CC(N)=O)C(=O)N[C@@H](Cc1ccccc1)C(=O)N[C@@H](CC(N)=O)C(=O)N[C@@H](CCCCN)C(=O)O)[C@@H](C)O)[C@@H](C)O)[C@@H](C)CC [CXCR41-38] | ΔG (kcal mol^−1) [10]: −7.29* kcal mol^−1
